In PubChem BioAssay AID743136 (Broad Institute, 2013):
Where “and” joins values, the source holds several entries; their conditions need not be identical. Equal entries are not always repeated. Calls of active or inactive are those of the source.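 How the source made its calls: active means valid fitted curve with falling viability signal and AC50 at most twice the top tested concentration; inconclusive means flat curve with 30 to 70% signal loss, or poor fit; inactive means the rest, including opposite-direction effects.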

Key:
[1] = hepatoma cell viability reduction – ATP luminescence, dry powder, Set2, 50 µM top, cytotoxicity control, dose response (AID 743136); settings: HepG2 viability, CellTiter-Glo ATP luminescence, 72 h
[2] = test system: HepG2 viability, CellTiter-Glo ATP luminescence, 72 h; assay: as above

| Compound | activity change, negative = cytotoxicity ([1]; at 50 µM (top of the series)) | also measured |
| --- | --- | --- |
| Cc1c(C(=O)O)sc2nc(/C=C/c3cccc(N4CCNCC4)c3)[nH]c(=O)c12 | -21% (inactive) |  |
| Cc1c(C(=O)O)sc2nc(/C=C/c3ccccc3O)[nH]c(=O)c12 | -7.61% (inactive) |  |
| Cc1c(C(=O)O)sc2nc(/C=C/c3ccc(O)cn3)[nH]c(=O)c12 |  | activity change, negative = cytotoxicity ([1]; at 1.2 µM (top of the series)): -0.612% (inactive) |
| Cc1c(C(=O)O)sc2nc(/C=C/c3cc4ccccc4cn3)[nH]c(=O)c12 | -5.12% (inactive) |  |
| Cc1c(C(=O)O)sc2nc(/C=C/c3ccc4ccccc4c3)[nH]c(=O)c12 | -8.19% (inactive) |  |
| Cc1c(C(=O)O)sc2nc(/C=C/c3ccccc3)[nH]c(=O)c12 | -17.2% (inactive) |  |
| Cc1c(C(=O)O)sc2nc(/C=C/c3cccnc3N)[nH]c(=O)c12 |  | AC50 [2]: > 24 µM (inactive) |
| Cc1c(C(=O)O)sc2nc(/C=C/c3cccnc3)[nH]c(=O)c12 | -15.4% (inactive) |  |
| Cc1c(C(=O)O)sc2nc(/C=C/c3ccccn3)[nH]c(=O)c12 | -16.2% (inactive) |  |
| Cc1c(C(=O)O)sc2nc(/C=C/c3ccncc3)[nH]c(=O)c12 | -2.2% (inactive) |  |
| Cc1c(C(=O)O)sc2nc(/C=C/c3cccc([N+](=O)[O-])c3)[nH]c(=O)c12 | -30.8% (inactive) |  |
| Cc1c(C(=O)O)sc2nc(/C=C/c3cccc(N4CCOCC4)n3)[nH]c(=O)c12 | -4.25% (inactive) |  |
| Cc1c(C(=O)O)sc2nc(/C=C/c3cccc(C(F)(F)F)c3)[nH]c(=O)c12 | -10.9% (inactive) |  |
| Cc1c(C(=O)O)sc2nc(/C=C/c3ccc(N)nc3)[nH]c(=O)c12 | -9.16% (inactive) |  |
| Cc1c(C(=O)O)sc2nc(/C=C/C3CC3)[nH]c(=O)c12 | -1.5% (inactive) |  |
| Cc1c(C(=O)O)sc2nc(/C=C/c3ccc4[nH]ccc4c3)[nH]c(=O)c12 | 1.56% (inactive) |  |
| Cc1c(C(=O)O)sc2nc(/C=C/c3cccc(F)c3)[nH]c(=O)c12 | -10.3% (inactive) |  |
| Cc1c(C(=O)O)sc2nc(/C=C/c3ccnc4ccccc34)[nH]c(=O)c12 | -5.63% (inactive) |  |
| Cc1c(C(=O)O)sc2nc(/C=C/c3ccc4[nH]ccc4n3)[nH]c(=O)c12 |  | activity change, negative = cytotoxicity ([1]; at 12 µM (top of the series)): 2.05% (inactive) |
| Cc1c(C(=O)O)sc2nc(/C=C/c3cccc(C(N)=O)c3)[nH]c(=O)c12 | -16.7% (inactive) |  |
| Cc1c(C(=O)O)sc2nc(CCc3cccc(O)c3)[nH]c(=O)c12 | -14.1% (inactive) |  |
| Cc1c(C(=O)O)sc2nc(/C=C/c3cccc(O)c3)[nH]c(=O)c12 | -10.4% (inactive) and -7.42% (inactive) | activity change, negative = cytotoxicity ([1]; at 46 µM (top of the series)): 1.28% (inactive) |
| Cc1c(C(=O)O)sc2nc(/C=C/c3cccc(N)c3)[nH]c(=O)c12 | -6.41% (inactive) |  |
| COc1cccc(/C=C/c2nc3sc(C(=O)O)c(C)c3c(=O)[nH]2)c1 | -15.1% (inactive) |  |
| Cc1c(C(=O)O)sc2nc(/C=C/C=C/c3ccccc3)[nH]c(=O)c12 | 20.1% (inactive) |  |
| Cc1c(C(=O)O)sc2nc(/C=C/c3cccc(C(=O)O)c3)[nH]c(=O)c12 | -5.9% (inactive) |  |
| Cc1c(C(=O)O)sc2nc(/C=C/c3ccc4cc[nH]c4c3)[nH]c(=O)c12 | -21% (inactive) |  |
| Cc1c(C(=O)O)sc2nc(/C=C/c3cccc(=O)[nH]3)[nH]c(=O)c12 | -1.32% (inactive) |  |
| Cc1c(C(=O)O)sc2nc(/C=C/c3cccc(OC(F)(F)F)c3)[nH]c(=O)c12 |  | AC50 [2]: > 100 µM (inactive) |
| Cc1c(C(=O)O)sc2nc(/C=C/c3cnc4ccccc4c3)[nH]c(=O)c12 | -18.5% (inactive) |  |
